Test results taken from patent US11845752B2, “Substituted imidazo[1,5-a]pyrazines for the treatment of hepatitis B” (ALIGOS THERAPEUTICS, INC., priority 2020, dated 2023).
Where two headings read alike, the source gives them in different places.

Tested on: HBV
Test: HBV-DNA antiviral assay using HepG2.117 cells (intracellular HBV DNA by qPCR)
Assay type: cell-based, HBV genotype D
Conditions: HBV DNA inhibition, 3 days incubation, read-out: EC50
Summary of the method: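 HepG2.117 cells (stably integrated genotype D HBV, Tet-off) seeded without doxycycline to induce pgRNA, then treated next day with 9 concentrations (4-fold dilutions, 2% DMSO) for 3 days at 37 °C. Intracellular HBV DNA quantified by qPCR against standard curve, viability by ATP content; inhibition relative to DMSO control, EC50/EC90/CC50 by non-linear regression.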

[1] = Hepatitis B virus, HepG2.117, 72 h

| SMILES | EC50 [1] [nM] | EC50 [nM] |
| --- | --- | --- |
| CC1Cn2c(c(C(=O)NCc3ccccc3-c3ccccn3)n(-c3ccc(N4CC5(CN(C)C5)C4)cc3)c2=O)CN1C(=O)c1ccc(Br)c(C(F)(F)F)c1 (single isomer, unassigned) [Compound 77a] | < 50 |  |
| CC1Cn2c(c(C(=O)NCc3ccccc3-c3ccccn3)n(-c3ccc(N4CC5(CN(C)C5)C4)cc3)c2=O)CN1C(=O)c1ccc(Br)c(C(F)(F)F)c1 (single isomer, unassigned) [Compound 77b] |  | 50 to 500 |
| CC1Cn2c(c(C(=O)NCc3ccccc3-c3ncccn3)n(-c3ccc(N4CC5(CN(C)C5)C4)cc3)c2=O)CN1C(=O)c1ccc(Br)c(C(F)(F)F)c1 (single isomer, unassigned) [Compound 78a] | < 50 |  |
| CC1Cn2c(c(C(=O)NCc3ccccc3-c3ccncn3)n(-c3ccc4nn(CC(F)(F)F)cc4c3)c2=O)CN1C(=O)c1ccc(Br)c(C(F)(F)F)c1 (single isomer, unassigned) [Compound 79a] | 50 to 500 |  |
| CC1Cn2c(c(C(=O)NCc3ccccc3-c3ccncn3)n(-c3ccc4nn(CC(F)(F)F)cc4c3)c2=O)CN1C(=O)c1ccc(Br)c(C(F)(F)F)c1 (single isomer, unassigned) [Compound 79b] |  | < 50 |
| CC1Cn2c(c(C(=O)NCc3ccccc3-c3ccncn3)n(-c3ccc(N4CCC5(CC4)CN(C)C5)cc3)c2=O)CN1C(=O)c1ccc(Br)c(C(F)(F)F)c1 (single isomer, unassigned) [Compound 80a] | 50 to 500 |  |
| CC1Cn2c(c(C(=O)NCc3ccccc3-c3ccncn3)n(-c3ccc(N4CCC5(CC4)CN(C)C5)cc3)c2=O)CN1C(=O)c1ccc(Br)c(C(F)(F)F)c1 (single isomer, unassigned) [Compound 80b] |  | 50 to 500 |
| CC1Cn2c(c(C(=O)NCc3ccccc3-c3ncccn3)n(-c3ccc(OCC4(O)CC4)cc3)c2=O)CN1C(=O)c1ccc(Br)c(C(F)(F)F)c1 (single isomer, unassigned) [Compound 81a] | 50 to 500 |  |
| CC1Cn2c(c(C(=O)NCc3ccccc3-c3ncccn3)n(-c3ccc(OCC4(O)CC4)cc3)c2=O)CN1C(=O)c1ccc(Br)c(C(F)(F)F)c1 (single isomer, unassigned) [Compound 81b] |  | < 50 |
| CC1Cn2c(c(C(=O)NCc3ccccc3-c3ccncn3)n(-c3ccc(N4CC5(CCN5C)C4)cc3)c2=O)CN1C(=O)c1ccc(Br)c(C(F)(F)F)c1 (single isomer, unassigned) [Compound 84a] | 50 to 500 |  |
| CC1Cn2c(c(C(=O)NCc3ccccc3-c3ccncn3)n(-c3ccc(N4CC5(CCN5C)C4)cc3)c2=O)CN1C(=O)c1ccc(Br)c(C(F)(F)F)c1 (single isomer, unassigned) [Compound 84b] |  | < 50 |
| CC1Cn2c(c(C(=O)NCc3ccccc3-c3ccncn3)n(-c3ccc(N4CCC5(CN(C)C5)C4)cc3)c2=O)CN1C(=O)c1ccc(Br)c(C(F)(F)F)c1 (single isomer, unassigned) [Compound 88a] | < 50 |  |
| CC1Cn2c(c(C(=O)NCc3ccccc3-c3ccncn3)n(-c3ccc(N4CCC5(CN(C)C5)C4)cc3)c2=O)CN1C(=O)c1ccc(Br)c(C(F)(F)F)c1 (single isomer, unassigned) [Compound 88b] |  | 50 to 500 |
| CC1Cn2c(c(C(=O)NCc3ccccc3-c3ccncn3)n(-c3ccc4oc(N)nc4c3)c2=O)CN1C(=O)c1ccc(Br)c(Cl)c1 (single isomer, unassigned) [Compound 92a] | 500 to 5000 |  |
| CC1Cn2c(c(C(=O)NCc3ccccc3-c3ccncn3)n(-c3ccc4oc(N)nc4c3)c2=O)CN1C(=O)c1ccc(Br)c(Cl)c1 (single isomer, unassigned) [Compound 92b] |  | 500 to 5000 |
| CC1Cn2c(c(C(=O)NCc3ccccc3-c3ccncn3)n(-c3ccc4oc(N)nc4c3)c2=O)CN1C(=O)c1ccc(Br)c(C(F)(F)F)c1 (single isomer, unassigned) [Compound 93a, (6R*)-2-(2-amino-1,3-benzoxazol-5-yl)-7-[4-bromo-3-(trifluoromethyl)benzoyl]-6-methyl-3-oxo-N-{[2-(pyrimidin-4-yl)phenyl]methyl}-5H,6H,8H-imidazo[1,5-a]pyrazine-1-carboxamide] |  | 500 to 5000 |
| CC1Cn2c(c(C(=O)NCc3ccccc3-c3ccncn3)n(-c3ccc4oc(N)nc4c3)c2=O)CN1C(=O)c1ccc(Br)c(C(F)(F)F)c1 (single isomer, unassigned) [Compound 93b, (6S*)-2-(2-amino-1,3-benzoxazol-5-yl)-7-[4-bromo-3-(trifluoromethyl)benzoyl]-6-methyl-3-oxo-N-{[2-(pyrimidin-4-yl)phenyl]methyl}-5H,6H,8H-imidazo[1,5-a]pyrazine-1-carboxamide] |  | 50 to 500 |
| CN[C@H](C)COc1ccc(-n2c(C(=O)NCc3ccccc3-c3ncccn3)c3n(c2=O)C[C@@H](C)N(C(=O)c2ccc(Br)c(C(F)(F)F)c2)C3)cc1 (single isomer, unassigned) [Compound 95a] | 50 to 500 |  |
| C[C@H](COc1ccc(-n2c(C(=O)NCc3ccccc3-c3ncccn3)c3n(c2=O)C[C@@H](C)N(C(=O)c2ccc(Br)c(C(F)(F)F)c2)C3)cc1)N1CCOCC1 (single isomer, unassigned) [Compound 96a] | < 50 |  |
| C[C@H](COc1ccc(-n2c(C(=O)NCc3ccccc3-c3ncccn3)c3n(c2=O)C[C@@H](C)N(C(=O)c2ccc(Br)c(C(F)(F)F)c2)C3)cc1)N(C)C (single isomer, unassigned) [Compound 97a] | 50 to 500 |  |

| SMILES | EC50 [1] [nM] | EC50 [nM] |
| --- | --- | --- |
| C[C@H](COc1ccc(-n2c(C(=O)NCc3ccccc3-c3ncccn3)c3n(c2=O)C[C@H](C)N(C(=O)c2ccc(Br)c(C(F)(F)F)c2)C3)cc1)N(C)C (single isomer, unassigned) [Compound 97b] | < 50 |  |
| CC1Cn2c(c(C(=O)NCc3ccccc3-c3nccc(C(F)(F)F)n3)n(-c3ccc(N4CC5(CN(C)C5)C4)cc3)c2=O)CN1C(=O)c1ccc(Br)c(C(F)(F)F)c1 (single isomer, unassigned) [Compound 98a] |  | 50 to 500 |
| CC1Cn2c(c(C(=O)NCc3ccccc3-c3nccc(C(F)(F)F)n3)n(-c3ccc(N4CC5(CN(C)C5)C4)cc3)c2=O)CN1C(=O)c1ccc(Br)c(C(F)(F)F)c1 (single isomer, unassigned) [Compound 98b] |  | 500 to 5000 |
| CC1Cn2c(c(C(=O)NCc3ccccc3-c3ccn(CC(F)(F)F)n3)n(-c3ccc(N4CC5(CN(C)C5)C4)cc3)c2=O)CN1C(=O)c1ccc(Br)c(C(F)(F)F)c1 (single isomer, unassigned) [Compound 99a] | 50 to 500 |  |
| CC1Cn2c(c(C(=O)NCc3ccccc3-c3ccn(CC(F)(F)F)n3)n(-c3ccc(N4CC5(CN(C)C5)C4)cc3)c2=O)CN1C(=O)c1ccc(Br)c(C(F)(F)F)c1 (single isomer, unassigned) [Compound 99b] |  | 50 to 500 |
| CC1Cn2c(c(C(=O)NCc3ccccc3-c3ncccn3)n(-c3ccc4c(cnn4CC(F)(F)F)c3)c2=O)CN1C(=O)c1ccc(Br)c(C(F)(F)F)c1 (single isomer, unassigned) [Compound 100a] | < 50 |  |
| CC1Cn2c(c(C(=O)NCc3ccccc3-c3ncccn3)n(-c3ccc4c(cnn4CC(F)(F)F)c3)c2=O)CN1C(=O)c1ccc(Br)c(C(F)(F)F)c1 (single isomer, unassigned) [Compound 100b] |  | < 50 |
| CC1Cn2c(c(C(=O)NCc3ccccc3-c3ncccn3)n(-c3ccc4c(cnn4C[C@@H](O)C(F)(F)F)c3)c2=O)CN1C(=O)c1ccc(Br)c(C(F)(F)F)c1 (single isomer, unassigned) [Compound 101a] | 50 to 500 |  |
| CC1Cn2c(c(C(=O)NCc3ccccc3-c3ncccn3)n(-c3ccc4c(c3)nnn4CC(F)(F)F)c2=O)CN1C(=O)c1ccc(Br)c(C(F)(F)F)c1 (single isomer, unassigned) [Compound 103a] | 50 to 500 |  |
| CC1Cn2c(c(C(=O)NCc3ccccc3-c3ncccn3)n(-c3ccc4c(c3)nnn4CC(F)(F)F)c2=O)CN1C(=O)c1ccc(Br)c(C(F)(F)F)c1 (single isomer, unassigned) [Compound 103b] |  | < 50 |
| CC1Cn2c(c(C(=O)NCc3c(F)cccc3Cl)n(-c3ccc4c(cnn4CC(F)(F)F)c3)c2=O)CN1C(=O)c1ccc(Br)c(C(F)(F)F)c1 (single isomer, unassigned) [Compound 104a] | < 50 |  |
| CC1Cn2c(c(C(=O)NCc3c(F)cccc3Cl)n(-c3ccc4c(cnn4CC(F)(F)F)c3)c2=O)CN1C(=O)c1ccc(Br)c(C(F)(F)F)c1 (single isomer, unassigned) [Compound 104b] |  | 50 to 500 |
| CC1Cn2c(c(C(=O)NCc3ccccc3-c3ncccn3)n(-c3ccc4nn(C[C@@H](O)C(F)(F)F)cc4c3)c2=O)CN1C(=O)c1ccc(Br)c(C(F)(F)F)c1 (single isomer, unassigned) [Compound 105a] | < 50 |  |
| CC1Cn2c(c(C(=O)NCc3c(F)cccc3Cl)n(-c3ccc(N4CC5(CN(C)C5)C4)cc3)c2=O)CN1C(=O)c1ccc(Br)c(C(F)(F)F)c1 (single isomer, unassigned) [Compound 106a] | 50 to 500 |  |
| CC1Cn2c(c(C(=O)NCc3c(F)cccc3Cl)n(-c3ccc(N4CC5(CN(C)C5)C4)cc3)c2=O)CN1C(=O)c1ccc(Br)c(C(F)(F)F)c1 (single isomer, unassigned) [Compound 106b] |  | 50 to 500 |
| CC1Cn2c(c(C(=O)NCc3ccccc3-c3ncccn3)n(-c3ccc4oncc4c3)c2=O)CN1C(=O)c1ccc(Br)c(C(F)(F)F)c1 (single isomer, unassigned) [Compound 108a] | 500 to 5000 |  |
| CC1Cn2c(c(C(=O)NCc3ccccc3-c3ncccn3)n(-c3ccc4oncc4c3)c2=O)CN1C(=O)c1ccc(Br)c(C(F)(F)F)c1 (single isomer, unassigned) [Compound 108b] |  | 500 to 5000 |
| CC1Cn2c(c(C(=O)NCc3ccccc3-c3ncccn3)n(-c3ccc4c(cnn4C4CNC4)c3)c2=O)CN1C(=O)c1ccc(Br)c(C(F)(F)F)c1 (single isomer, unassigned) [Compound 109a] | 500 to 5000 |  |
| CC1Cn2c(c(C(=O)NCc3ccccc3-c3ncccn3)n(-c3ccc4c(cnn4C4CNC4)c3)c2=O)CN1C(=O)c1ccc(Br)c(C(F)(F)F)c1 (single isomer, unassigned) [Compound 109b] |  | 500 to 5000 |
